Measured values as given in patent US9051335B2, “Antipruritic agent for pruritus caused by multiple sclerosis” (TORAY INDUSTRIES, INC., priority 2005, dated 2015).

Tested on: MRL/lpr mice
Assay: Spontaneous scratching behavior in MRL/lpr mice (antipruritic effect)
Type: in vivo
Conditions: 20 weeks old female MRL/lpr mice, n=8
Protocol: [drawing 8] which is an κ opioid receptor agonist compound against pruritus was evaluated. The evaluation was carried out over 5 days dividedly. On Day 1, sterilized distilled water was orally administered 30 minutes before the beginning of the recording of the scratching behavior, and the number of scratching behavior when the mouse received a solvent was counted for 60 minutes. On Day 2, Compound 1 was orally administered to the same mouse 30 minutes before the beginning of the recording of the scratching behavior at a dose of 3 μg/kg, and the number of scratching behavior was counted for 60 minutes. On Days 3 to 5, the experiments were carried out in the same schedule as in Day 2 increasing the dose of Compound 1 such that the doses of Compound 1 on Day 3, Day 4 and Day 5 were 10 μg/kg, 30 μg/kg and 100 μg/kg, respectively (n=8). […] The number of scratching behavior was counted visually by replaying the video tape. The number of scratching behavior was counted such that the series of behavior from raising the hind leg for starting the scratching to putting down the hind leg were counted as one scratching behavior. […]

For `CN(C(=O)/C=C/c1ccoc1)[C@@H]1CC[C@@]2(O)[C@H]3Cc4ccc(O)c5c4[C@@]2(CCN3CC2CC2)[C@H]1O5.Cl` [Compound 1, (−)-17-cyclopropylmethyl-4,5α-epoxy-3,14β-dihydroxy-6β-(N-methyl-trans-3-(3-furyl)acrylamido)morphinan hydrochloric acid salt], the “number of scratching behavior (60 minutes) versus control group at the time of administration of the solvent” value (30 μg/kg orally 30 minutes before recording, significant at statistical level of 5%) was “decreased” and the “number of scratching behavior (60 minutes) versus control group at the time of administration of the solvent” value (100 μg/kg orally 30 minutes before recording, significant at statistical level of 1%) was “decreased”.
